In brackets after ≈: the same amount, converted by molar mass. Structures can show the parent of a compound that is named as a salt. Where two headings read alike, the source gives them in different places.
Key:
[1] = Cytotoxicity assay (WST, Cell Counting Kit-8); type: cell-based; details: human, Hep38.7-Tet cells, WST method (CCK-8); read-out: CC50: the concentration that kills 50% of Hep38.7-Tet cells
Experimental: (§1) The target compounds N5-N8 were evaluated for their antiviral potency against HBV replication, as well as cytotoxicity in Hep38.7-Tet cells, which reproduces HBV replication from a chromosome-integrated HBV transgene under depletion of tetracycline from the medium. The 50% effective concentration (EC50) for anti-HBV activity, 50% cytotoxic concentration (CC50), and selectivity index (SI) calculated by CC50/EC50 ratio are shown in Table 1.
(§2) The WST assays were performed by using Cell Counting Kit-8 (CCK-8) (DOJINDO) according to the manufacturer’s protocol. CCK-8 solution was added to the cells, which were incubated at 37 °C for 15 min and the absorbance at 450 nm was measured.

[2] = test system: HBV replication in Hep38.7-Tet cells; assay: In vitro anti-HBV assay: inhibition of HBV replication (HBV DNA in culture supernatant, real-time PCR); type: cell-based, Hepatitis B virus; details: for EC50: Hepatitis B virus, 144 h, 6 days treatment, read-out: EC50: the concentration of 50% inhibition for HBV DNA in Hep38.7-Tet cells supernatant
Experimental: as §1
Hep38.7-Tet cells were cultured with DMEM/F-12/GlutaMAX supplemented with 10% fetal bovine serum, and 10 mM HEPES, 200 unit/mL penicillin, 200 µg/mL streptomycin, 5 µg/mL insulin, and 400 ng/mL tetracycline were added at 37 °C in 5% CO2. Tetracycline was removed when inducing HBV replication. Three days after seeding the cells, the cells were treated with or without compounds for 6 days and the culture supernatants were recovered to quantify HBV DNA using the primers 5′-[…]-3′, 5′-[…]-3′, and a probe 5′-FAM-[…]-TAMRA-3′ by real-time fluorescence quantitative PCR, as described.

Plasma stability at 4 °C = type: in vitro ADME; details: rat plasma, 2 µM; for Plasma (4 °C) Residual: after 2 h
Experimental: (§3) In order to verify the stability of prodrug in vitro, the stability of NVR 3-778 and prodrug N6 in plasma at 4 °C and whole blood at 37 °C was tested by the LC-MS/MS and characterization of their stability by peak area. […] A total of 1 mL of rat plasma was placed in ice water at 4 °C and 1 mL of rat whole blood was placed in a water bath at 37 °C for use, respectively. DMSO solution with compound concentration of 1 mM was prepared, and then 10 µL compound solution was added to 90 μL 45% methanol aqueous solution to obtain a quantitative solution with a concentration of 100 µM. A 2 µL compound solution was added to 98 µL 4 °C plasma and 37 °C whole blood, and three portions were prepared to reach the final concentration of 2 µM, respectively. After incubation for two hours, 400 µL termination solution was added. The samples were centrifuged at 4000 rpm for 10 min, and the supernatant was extracted. A total of 100 µL supernatant was mixed with 200 µL ultrapure water and fully shaken for 10 min. The absorption peak area (A) of the sample to be tested was determined by HPLC.

Hep38.7-Tet cells = assay: Cytotoxicity assay (WST, Cell Counting Kit-8); type: cell-based
Experimental: as §1, §2

[3] = Water solubility test in phosphate buffers (HPLC); type: physicochemical; details: for solubility at 1 h: aqueous buffer
Experimental: The compound was dissolved in DMSO to prepare the mother liquor with a concentration of 10 mg/mL, and then 10 µL mother liquor was added to 1 mL phosphate buffer with different pH (pH = 2.0, 7.0, and 7.4). The solution was oscillated for 2 h at 3000 rpm of the vortex oscillator, and the precipitation of compounds was observed visually. The standard curve can be established by increasing the concentration of mother liquor until turbidity appears. The peak area (A) of different concentrations (c) was determined by HPLC. The standard curve was established with the concentration and peak area as abscissa and ordinate, respectively, and the standard curve equation A = kc + b was calculated. The standard curve of NVR 3-778 concentration–peak area was established by measuring the peak area at five concentrations of 1000, 200, 40, 8.0, and 1.6 µg/mL. The standard curve equation was A = 35,268c + 80,359 with R^2 = 0.9999. By measuring the peak area at 4000 µg/mL, 1000 µg/mL, 200 µg/mL, 40 µg/mL, and 8.0 µg/mL, the standard curve of N6 concentration–peak area was established: A = 16,303c + 714,762, R^2 = 0.999. Since the solubility of N6 in phosphate buffer solution (pH = 7.0, 7.4) had exceeded the detector range, the saturated solution of N6 was diluted 10 times for testing. On this basis, the saturated solution (pH = 2.0, 7.0, and 7.4) of phosphate buffer at different pH values was prepared and fully oscillated for 1 h before filtration. Finally, the absorption peak area of the sample at different pH phosphate buffer (pH = 2.0, 7.0, and 7.4) was determined (measured twice). According to the standard curve equation, the corresponding concentration was calculated, which was the solubility of the compound.

HepG2.2.15 cell line = details: read-out: EC50, antiviral activity; cited from earlier work
[4] = Whole blood stability at 37 °C; type: in vitro ADME; details: rat whole blood, 2 µM; for Whole Blood (37 °C) Residual: after 2 h
Experimental: as §3

[5] = Pharmacokinetic experiment after oral administration in rats; type: in vivo, SD rats; details: for MRT last: read-out: MRT0-last
Experimental: In order to explore the metabolism and bioavailability of prodrug in vivo after oral administration, the main pharmacokinetic parameters were tested. After oral administration of N6 and NVR 3-778 to the two groups of rats, we detected their plasma concentration, respectively. […] The experimental results confirmed that N6 had longer half-life and lower maximum concentration in vivo than NVR 3-778. In addition, N6 was completely transformed into NVR 3-778 in vivo, and both had favorable bioavailability. Compared with NVR3-778, N6 can release drugs more slowly, which can improve the narrow therapeutic window of NVR3-778 to some extent.
Six male SD rats were randomly divided into two groups (administered with N6 and NVR 3-778, respectively). The rats were fasted for 12 h before administration and had free access to water. Animal feed was given 4 h after administration. Compounds N6 and NVR 3-778 were both administered orally at a dose of 10 mg/kg. The corresponding doses of compounds were dissolved in DMSO/PEG400/water (3%/60%/37%, V/V/V) mixed solution to prepare compound oral solutions, respectively, which were filtered through the […]. After intragastric administration, blood was obtained by jugular vein puncture (blood point: before administration and 0.25 h, 0.5 h, 1 h, 2 h, 4 h, 6 h, 10 h, and 24 h after administration). Then 0.25 mL whole blood was collected from each rat at each time point, adding EDTA-K2 for anticoagulation. After collection, the plasma was centrifuged within 1 h (centrifugal condition: 8000 rpm, 5 min, 8 °C). Plasma samples were stored in a refrigerator before analysis. After the experiment, all rats were executed according to the regulations of the Experimental Animal Ethics Committee.

[6] = parameters: method as in PMID 35268440; details: pH = 2.0 ref 16; cited from earlier work
[7] = male, SD, plasma, 10 mg/kg, analyte NVR 3-778 after oral NVR 3-778, rat
[8] = male, SD, analyte N6 in plasma after oral N6, 10 mg/kg (18.8 nmol/kg), rat

| Compound | CC50 [1] [nM] | SI: selectivity index, the ratio of CC50/EC50 [2] | EC50 [2] [nM] | Plasma (4 °C) 0 h (peak area) (Plasma stability at 4 °C) | Plasma (4 °C) 2 h (peak area) (Plasma stability at 4 °C) | Plasma (4 °C) Residual (Plasma stability at 4 °C) [%] | solubility at 1 h ([3]; phosphate buffer pH = 2.0) [µg/mL] | solubility at 1 h ([3]; phosphate buffer pH = 7.0) [µg/mL] | solubility at 1 h ([3]; phosphate buffer pH = 7.4) [µg/mL] | Whole Blood (37 °C) 0 h (peak area) [4] | Whole Blood (37 °C) 2 h (peak area) [4] | Whole Blood (37 °C) Residual [4] [%] | melting point [°C] | other results |
| --- | --- | --- | --- | --- | --- | --- | --- | --- | --- | --- | --- | --- | --- | --- |
| O=C(Nc1cc(F)c(F)c(F)c1)c1ccc(F)c(S(=O)(=O)N2CCC(OP(=O)(O)O)CC2)c1 [N5, 1-((2-Fluoro-5-((3,4,5-trifluorophenyl)carbamoyl)phenyl)sulfonyl)piperidin-4-yl Dihydrogen Phosphate] | 13700 ± 1450 | 33 | 420 ± 69 | – | – | – | – | – | – | – | – | – | – | – |
| O=C(Nc1cc(F)c(F)c(F)c1)c1ccc(F)c(S(=O)(=O)N2CCC(O)CC2)c1 [NVR 3-778, 4-Fluoro-3-((4-hydroxypiperidin-1-yl)sulfonyl)-N-(3,4,5-trifluorophenyl)benzamide] | 12600 ± 210 | 36 | 380 ± 47 | 0.12 ± 0.0078 | 0.10 ± 0.0066 | 85 | 3.82 (≈ 8.83 µM) | 24 (≈ 55.6 µM) | 4.84 (≈ 11.2 µM) | 0.18 ± 0.016 | 0.16 ± 0.0026 | 91 | – | CC50 (Hep38.7-Tet cells; WST method (CCK-8), read-out: CC50: the concentration that kills 50% of Hep38.7-Tet cells): 13600 ± 210 nM; EC50 (HepG2.2.15 cell line): 400 nM; Tlast ([5]; analyte NVR 3-778 after oral NVR 3-778, 10 mg/kg (23.1 nmol/kg), rat): 10.0 h; AUC(0-inf) [5, 7]: 3940 ± 948 ng·h/mL; AUC(0-t) [5, 7]: 3890 ± 948 ng·h/mL; Cmax [5, 7]: 1160 ± 261 ng/mL; Tmax [5, 7]: 0.833 ± 0.289 h; MRT inf ([5]; male, SD, plasma, 10 mg/kg, analyte NVR 3-778 after oral NVR 3-778, rat, read-out: MRT0-inf): 2.78 ± 0.144 h; MRT last [5, 7]: 2.67 ± 0.106 h; half-life ([5]; male, SD, plasma, analyte NVR 3-778 after oral NVR 3-778, 10 mg/kg (23.1 nmol/kg), rat): 1.4 ± 0.25 h; water solubility [6]: 3 µg/mL (≈ 6.94 µM) |
| O=C(O)CCC(=O)OC1CCN(S(=O)(=O)c2cc(C(=O)Nc3cc(F)c(F)c(F)c3)ccc2F)CC1 [N6, 4-((1-((2-fluoro-5-((3,4,5-trifluorophenyl)carbamoyl)phenyl)sulfonyl)piperidin-4-yl)oxy)-4-oxobutanoic acid] | 12600 ± 1050 | 36 | 350 ± 48 | 0.88 ± 0.052 | 0.89 ± 0.016 | 101 | 695 (≈ 1310 µM) | 7500 (≈ 14100 µM) | 4420 (≈ 8290 µM) | 0.65 ± 0.048 | 0.70 ± 0.026 | 108 | 138 to 140 | water solubility compared with NVR 3-778 ([3]; pH = 2): more than 180 times; water solubility compared with NVR 3-778 ([3]; pH = 7): > 310 times; water solubility compared with NVR 3-778 ([3]; pH = 7.4): > 900 times; Tlast ([5]; analyte N6 in plasma after oral N6, 10 mg/kg (18.8 nmol/kg), rat): 1.00 h; AUC(0-t) [5, 8]: 8.13 ± 1.5 ng·h/mL; Cmax [5, 8]: 14.7 ± 1.31 ng/mL; Tmax [5, 8]: 0.25 h; MRT last [5, 8]: 0.487 h; time for complete conversion of N6 into NVR 3-778 ([5]; rats, oral N6 10 mg/kg): ≤ 2 h |
| O=C(Nc1cc(F)c(F)c(F)c1)c1ccc(F)c(S(=O)(=O)N2CCC(OP(=O)(O)O)CC2)c1 (as salt: phosphate) [N5, 1-((2-Fluoro-5-((3,4,5-trifluorophenyl)carbamoyl)phenyl)sulfonyl)piperidin-4-yl Dihydrogen Phosphate] | – | – | – | – | – | – | – | – | – | – | – | – | 162 to 164 | – |
| O=C(O)CCCCC(=O)OC1CCN(S(=O)(=O)c2cc(C(=O)Nc3cc(F)c(F)c(F)c3)ccc2F)CC1 [N8, 6-((1-((2-fluoro-5-((3,4,5-trifluorophenyl)carbamoyl)phenyl)sulfonyl)piperidin-4-yl)oxy)-6-oxohexanoic acid] | > 256000 | >731 | 350 ± 32 | – | – | – | – | – | – | – | – | – | 132 to 134 | reduction of toxicity compared with NVR 3-778 (Hep38.7-Tet cells; CC50 in Hep38.7-Tet cells): at least 18 fold |
| O=C(O)CCCC(=O)OC1CCN(S(=O)(=O)c2cc(C(=O)Nc3cc(F)c(F)c(F)c3)ccc2F)CC1 [N7, 5-((1-((2-fluoro-5-((3,4,5-trifluorophenyl)carbamoyl)phenyl)sulfonyl)piperidin-4-yl)oxy)-5-oxopentanoic acid] | 13000 ± 1740 | 46 | 280 ± 24 | – | – | – | – | – | – | – | – | – | 135 to 137 | – |

— PMC9505734, “Design, Synthesis, and Evaluation of a Set of Carboxylic Acid and Phosphate Prodrugs Derived from HBV Capsid Protein Allosteric Modulator NVR 3-778” (Molecules, 2022)
